According to ChEMBL document CHEMBL1132519, “Synthesis and sar of 2- and 3-substituted 7-azaindoles as potential dopamine D4 ligands” (Bioorg Med Chem Lett, 1999):

Biological target: D(3) dopamine receptor (Homo sapiens, UniProt P35462)
Sequence (P35462 whole entry): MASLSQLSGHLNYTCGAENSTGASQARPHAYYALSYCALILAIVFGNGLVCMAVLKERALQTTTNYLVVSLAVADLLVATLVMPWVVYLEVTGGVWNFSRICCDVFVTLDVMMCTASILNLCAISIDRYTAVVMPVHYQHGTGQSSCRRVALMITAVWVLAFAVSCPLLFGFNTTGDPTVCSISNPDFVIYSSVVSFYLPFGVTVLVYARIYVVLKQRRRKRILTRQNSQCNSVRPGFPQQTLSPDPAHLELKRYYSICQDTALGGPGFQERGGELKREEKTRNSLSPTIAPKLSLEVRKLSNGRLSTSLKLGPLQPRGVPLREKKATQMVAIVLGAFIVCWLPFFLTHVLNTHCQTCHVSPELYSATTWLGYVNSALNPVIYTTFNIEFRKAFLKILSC
Description: Ability to displace [3H]-spiperone from cloned human dopamine D3 receptor stably expressed in CHO cells

In order of rising Ki:
1. C1=C(c2ccccc2)CCN(CCc2c[nH]c3ncccc23)C1  10 nM
2. C1=C(/C=C/c2ccccc2)CCN(CCc2cc3ccc[nH]c-3n2)C1  25 nM
3. Clc1ccc(N2CCN(CCc3cc4cccnc4[nH]3)CC2)cc1  50 nM
4. c1ccc2c(c1)CCN(Cc1c[nH]c3ncccc13)C2  170 nM
5. C1=C(/C=C/c2ccccc2)CCN(CCc2c[nH]c3ncccc23)C1  180 nM
6. c1ccc(CCC2CCN(Cc3cc4ccc[nH]c-4n3)CC2)cc1  250 nM
7. COc1ccc(N2CCN(CCc3c[nH]c4ncccc34)CC2)cc1  530 nM
8. c1c[nH]c2nc(CN3CCc4ccccc4C3)cc-2c1  1100 nM
9. c1ccc(CCC2CCN(Cc3c[nH]c4ncccc34)CC2)cc1  1300 nM
10. COc1ccc(N2CCN(Cc3c[nH]c4ncccc34)CC2)cc1  3900 nM

Biological target: D(2) dopamine receptor (Homo sapiens, UniProt P14416)
Sequence (P14416 whole entry): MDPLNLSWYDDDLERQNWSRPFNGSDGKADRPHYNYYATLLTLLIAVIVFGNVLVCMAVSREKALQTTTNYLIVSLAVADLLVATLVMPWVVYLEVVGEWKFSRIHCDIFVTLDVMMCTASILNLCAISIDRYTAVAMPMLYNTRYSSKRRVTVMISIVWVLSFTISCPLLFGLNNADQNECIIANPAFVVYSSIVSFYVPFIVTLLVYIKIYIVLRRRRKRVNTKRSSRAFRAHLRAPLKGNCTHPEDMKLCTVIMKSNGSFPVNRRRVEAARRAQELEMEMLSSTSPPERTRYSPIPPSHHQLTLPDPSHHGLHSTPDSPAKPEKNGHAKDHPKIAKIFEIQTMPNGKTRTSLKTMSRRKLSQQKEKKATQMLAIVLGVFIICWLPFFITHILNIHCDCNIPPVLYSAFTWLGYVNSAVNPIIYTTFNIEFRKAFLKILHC
Description: Ability to displace [3H]spiperone from cloned human dopamine D2 receptor stably expressed in CHO cells

c1ccc2c(c1)CCN(Cc1c[nH]c3ncccc13)C2 and c1c[nH]c2nc(CN3CCc4ccccc4C3)cc-2c1 are within 1.5-fold of each other in Ki: 640 nM for the first, 600 nM for the second.

Compared with C1=C(/C=C/c2ccccc2)CCN(CCc2cc3ccc[nH]c-3n2)C1, C1=C(/C=C/c2ccccc2)CCN(CCc2c[nH]c3ncccc23)C1 is 4.6-fold lower in Ki: 1300 nM for the first, 280 nM for the second. The second binds more tightly here.

Compared with c1ccc(CCC2CCN(Cc3c[nH]c4ncccc34)CC2)cc1, c1ccc(CCC2CCN(Cc3cc4ccc[nH]c-4n3)CC2)cc1 is 5.5-fold lower in Ki: 1100 nM for the first, 200 nM for the second. The second binds more tightly here.

Compared with C1=C(c2ccccc2)CCN(CCc2c[nH]c3ncccc23)C1, COc1ccc(N2CCN(CCc3c[nH]c4ncccc34)CC2)cc1 is 43-fold higher in Ki: 21 nM for the first, 900 nM for the second. The first binds more tightly here.

First: COc1ccc(N2CCN(Cc3c[nH]c4ncccc34)CC2)cc1
Second: Clc1ccc(N2CCN(CCc3cc4cccnc4[nH]3)CC2)cc1
The Ki of the first is higher: greater than 1500 nM for the first, 800 nM for the second.

Biological target: T1, D(4) dopamine receptor (Homo sapiens, UniProt P21917)
T1 sequence (P21917 whole entry): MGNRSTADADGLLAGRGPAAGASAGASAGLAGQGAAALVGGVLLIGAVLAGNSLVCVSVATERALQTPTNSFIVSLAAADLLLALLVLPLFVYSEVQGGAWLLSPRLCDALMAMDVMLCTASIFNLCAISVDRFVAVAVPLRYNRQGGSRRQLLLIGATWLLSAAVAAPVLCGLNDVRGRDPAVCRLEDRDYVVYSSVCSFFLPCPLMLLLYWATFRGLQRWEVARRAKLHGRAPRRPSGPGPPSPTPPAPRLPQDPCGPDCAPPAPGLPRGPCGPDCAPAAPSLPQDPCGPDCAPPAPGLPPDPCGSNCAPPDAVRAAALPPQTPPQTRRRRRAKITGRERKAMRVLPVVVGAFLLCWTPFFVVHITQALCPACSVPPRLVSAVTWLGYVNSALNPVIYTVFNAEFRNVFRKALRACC
Description: Ability to displace [3H]spiperone from cloned human dopamine D4 receptor stably expressed in HEK293 cells

In order of falling Ki:
1. c1c[nH]c2nc(CN3CCc4ccccc4C3)cc-2c1  59 nM
2. C1=C(c2ccccc2)CCN(CCc2c[nH]c3ncccc23)C1  34 nM
3. C1=C(/C=C/c2ccccc2)CCN(CCc2cc3ccc[nH]c-3n2)C1  30 nM
4. COc1ccc(N2CCN(CCc3c[nH]c4ncccc34)CC2)cc1  26 nM
5. Clc1ccc(N2CCN(CCc3cc4cccnc4[nH]3)CC2)cc1  11.7 nM
6. c1ccc2c(c1)CCN(Cc1c[nH]c3ncccc13)C2  7 nM
7. C1=C(/C=C/c2ccccc2)CCN(CCc2c[nH]c3ncccc23)C1  6.5 nM
8. c1ccc(CCC2CCN(Cc3cc4ccc[nH]c-4n3)CC2)cc1  2 nM
9. c1ccc(CCC2CCN(Cc3c[nH]c4ncccc34)CC2)cc1  1.8 nM
